Source: ChEMBL document CHEMBL1129522, “Inhibitors of acyl-CoA:cholesterol O-acyltransferase. 17. Structure-activity relationships of several series of compounds derived from N-chlorosulfonyl isocyanate” (J Med Chem, 1996)
Where “and” joins values, the source holds several entries; their conditions need not be identical. Identical values can stand only once.

Experiments:
Rattus norvegicus = experiment: Acute in vivo activity measured by total plasma cholesterol concentration levels (TC) at 30 mg/kg dose; format: functional
[1] = molecular target: T1, Sterol O-acyltransferase 1 (Rattus norvegicus) (UniProt O70536); experiment: Acute in vivo activity was measured by the total plasma cholesterol concentration levels(TC) at dose 3 mg/kg; format: functional, organism-based; parameters: dose 3 mg/kg
T1 sequence (whole entry): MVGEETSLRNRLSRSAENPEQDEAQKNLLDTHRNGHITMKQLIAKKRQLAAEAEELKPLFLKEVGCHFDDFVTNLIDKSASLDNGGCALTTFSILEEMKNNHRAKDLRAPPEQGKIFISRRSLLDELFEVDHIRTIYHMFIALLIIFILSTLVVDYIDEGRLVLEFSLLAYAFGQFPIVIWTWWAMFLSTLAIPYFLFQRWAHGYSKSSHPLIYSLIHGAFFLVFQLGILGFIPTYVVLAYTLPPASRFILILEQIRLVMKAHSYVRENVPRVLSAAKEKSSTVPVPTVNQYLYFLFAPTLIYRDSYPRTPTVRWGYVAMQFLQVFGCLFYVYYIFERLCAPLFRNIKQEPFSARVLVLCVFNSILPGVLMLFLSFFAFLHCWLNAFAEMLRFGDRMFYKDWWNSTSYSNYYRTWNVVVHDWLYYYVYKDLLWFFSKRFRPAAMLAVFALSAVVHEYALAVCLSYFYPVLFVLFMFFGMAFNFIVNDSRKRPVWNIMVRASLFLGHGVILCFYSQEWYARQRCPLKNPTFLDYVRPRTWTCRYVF

[2] = molecular target: T2, Sterol O-acyltransferase 1 (Rattus norvegicus, UniProt O70536); experiment: In vitro inhibitory activity against acyl coenzyme A:cholesterol acyltransferase 1 in microsomes of rat liver
T2 sequence (O70536 whole entry): T1 sequence (whole entry)

| Structure (SMILES) | Delta TC (Rattus norvegicus) | Delta TC [1] | IC50 [2] |
| --- | --- | --- | --- |
| CC(C)c1cccc(C(C)C)c1OC(=O)[N-]S(=O)(=O)Oc1c(C(C)C)cccc1C(C)C.[Na+] | -74% |  |  |
| CCCCCCCCN(C)S(=O)(=O)NC(=O)Oc1c(C(C)(C)C)cc(C)cc1C(C)(C)C |  | 1% | 18 µM |
| CCCCN(CCCC)S(=O)(=O)N(C)C(=O)Nc1c(C(C)C)cccc1C(C)C |  |  | > 5 µM |
| CCCCN(CC)S(=O)(=O)NC(=O)Nc1c(C(C)C)cccc1C(C)C |  | -29% | 1.2 µM |
| CC(C)c1cccc(C(C)C)c1OS(=O)(=O)NC(=O)OC1[C@H](C(C)C)CCC[C@H]1C(C)C (relative stereo) | -35% |  | 5.7 µM |
| CCCCCCCCCCOS(=O)(=O)NC(=O)Nc1c(C(C)C)cccc1C(C)C |  |  | > 10 µM |
| CCCCCCCCN(CCCCCCCC)S(=O)(=O)NC(=O)Oc1c(C(C)(C)C)cc(C)cc1C(C)(C)C |  |  | 2.7 µM |
| CCCCCCCCCCCCOS(=O)(=O)NC(=O)Sc1c(C(C)C)cccc1C(C)C | -9% |  | 48 µM |
| CCCCN(CCCC)S(=O)(=O)NC(=O)Oc1c(C(C)C)cccc1C(C)C [listing 1 of 2 here] |  |  | 1.9 µM |
| CC(C)c1cccc(C(C)C)c1OC(=O)NS(=O)(=O)N(Cc1ccccc1)Cc1ccccc1 |  | -17% | 20 µM |
| CCCCCCOS(=O)(=O)NC(=O)Nc1c(C(C)C)cccc1C(C)C |  | -8% | 27 µM |
| CC(C)c1cccc(C(C)C)c1OS(=O)(=O)NC(=O)Oc1c(F)c(F)c(F)c(F)c1F | -5% |  | 66 µM |
| CC(C)c1cccc(C(C)C)c1OC(=O)NS(=O)(=O)N1CCOCC1 |  |  | > 100 µM |
| CC(C)c1cccc(C(C)C)c1OC(=O)NS(=O)(=O)Oc1c(C(C)C)cc(O)cc1C(C)C | -15% |  | > 50 µM |
| CC(C)c1cccc(C(C)C)c1OS(=O)(=O)NC(=O)OC1CCCCC1 | -38% |  | 38 µM |
| CC(C)c1cccc(C(C)C)c1OS(=O)(=O)NC(=O)Oc1ccc(F)cc1 | -21% |  | > 50 µM |
| C=CCN(CC=C)S(=O)(=O)NC(=O)Nc1c(C(C)C)cccc1C(C)C |  | 2% | 2.7 µM |
| Cc1cccc(C)c1OC(=O)NS(=O)(=O)Oc1c(C(C)C)cccc1C(C)C | -37% |  | > 50 µM |
| CC(C)(C)c1cccc(C(C)(C)C)c1OC(=O)NS(=O)(=O)Oc1c(C(C)(C)C)cccc1C(C)(C)C | -18% |  | 30 µM |
| CCCCCCCCCCN(CCCCCCCCCC)S(=O)(=O)NC(=O)Oc1c(C(C)(C)C)cc(C)cc1C(C)(C)C |  |  | 89 µM |
| CC(C)c1cccc(C(C)C)c1OC(=O)NS(=O)(=O)Oc1c(C(C)C)cccc1C(C)C | -70% |  | 9.4 µM |
| CCCCN(CCCC)S(=O)(=O)NC(=O)Oc1c(C(C)(C)C)cc(C)cc1C(C)(C)C |  |  | 3.2 µM |
| CCCCCCN(CCCCCC)S(=O)(=O)NC(=O)Oc1c(C(C)(C)C)cc(C)cc1C(C)(C)C |  |  | 4.3 µM |

| Structure (SMILES) | Delta TC (Rattus norvegicus) | Delta TC [1] | IC50 [2] |
| --- | --- | --- | --- |
| CC(C)c1cccc(C(C)C)c1OS(=O)(=O)NC(=O)Oc1c(F)cccc1F | -27% |  | 65 µM |
| CC(C)c1cccc(C(C)C)c1OS(=O)(=O)NC(=O)OC12CC3CC(CC(C3)C1)C2 | -10% |  | 13 µM |
| CC(C)c1cccc(C(C)C)c1OS(=O)(=O)NC(=O)O[C@@H]1C[C@H](C)CCC1C(C)C (some centres undefined) | -40% |  | 21 µM |
| Cc1cc(C(C)(C)C)c(OC(=O)NS(=O)(=O)N(CC2CCCO2)CC2CCCO2)c(C(C)(C)C)c1 (centres undefined) |  |  | 21 µM |
| CC(C)c1cccc(C(C)C)c1OC(=O)NS(=O)(=O)N1CCN(C)CC1 |  |  | > 100 µM |
| CCCCCCCCCCCCOC(=O)NS(=O)(=O)Nc1c(OC)cc(OC)cc1OC |  |  | 30 µM |
| CCCCCCNS(=O)(=O)NC(=O)Oc1c(C(C)C)cccc1C(C)C |  | -12% | 21 µM |
| Cc1cc(C(C)(C)C)c(OC(=O)NS(=O)(=O)N(C)CCc2ccccn2)c(C(C)(C)C)c1 [listing 1 of 2 here] |  |  | 31 µM |
| CC(C)c1cccc(C(C)C)c1NS(=O)(=O)NC(=O)Oc1c(-c2ccccc2)cccc1-c1ccccc1 |  |  | > 25 µM |
| CC(C)c1cccc(C(C)C)c1OC(=O)NS(=O)(=O)N1CCCCC1 |  |  | > 100 µM |
| CC(C)c1cccc(C(C)C)c1OC(=O)NS(=O)(=O)N1CCCC1 |  | -4% | 53 µM |
| CCOC(=O)NS(=O)(=O)Oc1c(C(C)C)cccc1C(C)C | -14% |  | > 50 µM |
| CCC(C)N(C(=O)NS(=O)(=O)Oc1c(C(C)C)cccc1C(C)C)C(C)CC (centres undefined) | -20% |  | 12 µM |
| COc1cccc(OC)c1OC(=O)NS(=O)(=O)Oc1c(C(C)C)cccc1C(C)C |  | -12% and -4% |  |
| CN(C(=O)Oc1c(C(C)(C)C)cccc1C(C)(C)C)S(=O)(=O)NC(c1ccccc1)c1ccccc1 |  |  | 4.6 µM |
| CCCCN(CCCC)S(=O)(=O)NC(=O)Nc1c(C(C)C)cccc1C(C)C [listing 1 of 2 here] |  |  | 0.53 µM |
| CC(C)c1ccccc1OC(=O)NS(=O)(=O)Oc1c(C(C)C)cccc1C(C)C | -37% |  | > 50 µM |
| COc1cc(C(C)(C)C)c(OC(=O)[N-]S(=O)(=O)Oc2c(C(C)C)cccc2C(C)C)c(C(C)(C)C)c1.[Na+] | -60% |  | 10 µM |
| CC(C)c1cccc(C(C)C)c1NC(=O)NS(=O)(=O)N1CCCC1 |  |  | 15 µM |
| CCCCCCNS(=O)(=O)NC(=O)Oc1c(C(C)(C)C)cc(C)cc1C(C)(C)C |  | -10% | 19.4 µM |
| CCCCN(C)S(=O)(=O)NC(=O)Nc1c(C(C)C)cccc1C(C)C |  | -37% | 2.3 µM |
| COC(=O)NS(=O)(=O)Nc1c(C(C)C)cccc1C(C)C |  |  | > 100 µM |
| CC(C)c1cccc(C(C)C)c1NS(=O)(=O)NC(=O)NC(c1ccccc1)c1ccccc1 |  | -5% | 30 µM |

| Structure (SMILES) | Delta TC (Rattus norvegicus) | Delta TC [1] | IC50 [2] |
| --- | --- | --- | --- |
| CCN(CC)S(=O)(=O)NC(=O)Nc1c(C(C)C)cccc1C(C)C |  |  | 2.5 µM |
| CCCCCCCCCCN(CCCCCCCCCC)S(=O)(=O)NC(=O)Nc1c(C(C)C)cccc1C(C)C |  | -17% | 0.72 µM |
| CCCCCCCCCCCCOS(=O)(=O)NC(=O)Nc1c(C(C)C)cccc1C(C)C |  |  | 6.8 µM |
| CC(C)c1cccc(C(C)C)c1NC(=O)NS(=O)(=O)N(C)C |  |  | 3.9 µM |
| Cc1cc(C(C)(C)C)c(OC(=O)NS(=O)(=O)N(C(C)C)C(C)C)c(C(C)(C)C)c1 |  |  | 3.2 µM |
| CCCCN(CCCC)S(=O)(=O)NC(=O)Oc1c(C(C)C)cccc1C(C)C [listing 2 of 2 here] |  |  | 1.9 µM |
| COC(=O)NS(=O)(=O)Oc1c(C(C)C)cccc1C(C)C |  |  | > 100 µM |
| CCCCCN(CCCCC)S(=O)(=O)NC(=O)Oc1c(C(C)(C)C)cc(C)cc1C(C)(C)C |  |  | 2.2 µM |
| CCCCCCNS(=O)(=O)NC(=O)Nc1c(C(C)C)cccc1C(C)C |  |  | 8.1 µM |
| CC(C)NS(=O)(=O)NC(=O)Nc1c(C(C)C)cccc1C(C)C |  |  | 18 µM |
| CC(C)c1cccc(C(C)C)c1NC(=O)NS(=O)(=O)N(CCCN(C)C)CCCN(C)C |  |  | 55 µM |
| CCCCCCCCCCCCCCCCCCN(C)S(=O)(=O)NC(=O)Nc1c(C(C)C)cccc1C(C)C |  | -18% | 1.9 µM |
| COc1cc(C(C)(C)C)c(OC(=O)NS(=O)(=O)NCC(c2ccccc2)c2ccccc2)c(C(C)(C)C)c1 |  | -15% | 82 µM |
| CC(C)c1cccc(C(C)C)c1OC(=O)NS(=O)(=O)N1CCc2ccccc21 |  | -31% | 43 µM |
| Cc1cc(C(C)(C)C)c(OC(=O)NS(=O)(=O)N(C)CCc2ccccn2)c(C(C)(C)C)c1 [listing 2 of 2 here] |  |  | 31 µM |
| CCCCCCCCCCCCOC(=O)NS(=O)(=O)Nc1c(C(C)C)cccc1C(C)C |  |  | 33 µM |
| CC(C)c1cccc(C(C)C)c1NC(=O)NS(=O)(=O)N1CCC(c2ccccc2)CC1 |  | -17% | 10.4 µM |
| CC(C)c1cccc(C(C)C)c1NC(=O)NS(=O)(=O)N1CCCCC1 |  |  | 17 µM |
| CCCCCCCCCCC(C)OS(=O)(=O)NC(=O)Nc1c(C(C)C)cccc1C(C)C (centres undefined) |  | -48% |  |
| CCCCN(CCCC)S(=O)(=O)NC(=O)Nc1c(C(C)C)cccc1C(C)C [listing 2 of 2 here] |  |  | 0.36 µM |
| C=CCN(CC)S(=O)(=O)NC(=O)Nc1c(C(C)C)cccc1C(C)C |  |  | 2.1 µM |
| CC(C)c1cccc(C(C)C)c1NS(=O)(=O)NC(=O)N(Cc1ccccc1)Cc1ccccc1 |  |  | 16 µM |
